system: a variety of test species; test: Pre-emergence herbicidal activity (glasshouse, sprayed one day after sowing, evaluated after 13 days); format: in vivo; design: key: 5=total damage to plant; 0=no damage to plant; conditions: ABUTH, application pre-emergence, rate 1000 g/Ha, scale 0-5
Procedure, shortened: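 Seeds sown in standard soil in pots, sprayed one day later (pre-emergence) with aqueous solution from acetone/water (50:50) formulation with 0.5% Tween 20. Glasshouse at 24/16 °C day/night, 14 h light, 65% humidity, watered twice daily. Damage scored after 13 days, 0 (none) to 5 (total).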

SMILES	Pre-emergence herbicidal damage score, ABUTH
CC1=C(Cl)C(=O)N(c2noc(C(C)(C)C)c2Br)C1O (centres unmarked) [A23, 1-(4-bromo-5-tert-butyl-isoxazol-3-yl)-4-chloro-2-hydroxy-3-methyl-2H-pyrrol-5-one]	5
CC1=C(Cl)C(=O)N(c2noc(C(C)(C)C)c2Cl)C1O (centres unmarked) [A24]	5
CC1=C(Cl)C(=O)N(c2cc(C3CCCCC3)on2)C1O (centres unmarked) [A25]	3
CC1=C(Cl)C(=O)N(c2cc(C3(C)CC3)on2)C1O (centres unmarked) [A26]	5
C=CCC(C)(C)c1cc(N2C(=O)C(Cl)=C(C)C2O)no1 (centres unmarked) [A28]	5

same assay, conditions: ALOMY, application pre-emergence, rate 1000 g/Ha, scale 0-5

SMILES	Pre-emergence herbicidal damage score, ALOMY
CC1=C(Cl)C(=O)N(c2noc(C(C)(C)C)c2Br)C1O (centres unmarked) [A23, 1-(4-bromo-5-tert-butyl-isoxazol-3-yl)-4-chloro-2-hydroxy-3-methyl-2H-pyrrol-5-one]	4
CC1=C(Cl)C(=O)N(c2noc(C(C)(C)C)c2Cl)C1O (centres unmarked) [A24]	4
CC1=C(Cl)C(=O)N(c2cc(C3CCCCC3)on2)C1O (centres unmarked) [A25]	2
CC1=C(Cl)C(=O)N(c2cc(C3(C)CC3)on2)C1O (centres unmarked) [A26]	4
C=CCC(C)(C)c1cc(N2C(=O)C(Cl)=C(C)C2O)no1 (centres unmarked) [A28]	4

same assay, conditions: AMARE, application pre-emergence, rate 1000 g/Ha, scale 0-5

SMILES	Pre-emergence herbicidal damage score, AMARE
CC1=C(Cl)C(=O)N(c2noc(C(C)(C)C)c2Br)C1O (centres unmarked) [A23, 1-(4-bromo-5-tert-butyl-isoxazol-3-yl)-4-chloro-2-hydroxy-3-methyl-2H-pyrrol-5-one]	5
CC1=C(Cl)C(=O)N(c2noc(C(C)(C)C)c2Cl)C1O (centres unmarked) [A24]	4
CC1=C(Cl)C(=O)N(c2cc(C3CCCCC3)on2)C1O (centres unmarked) [A25]	5
CC1=C(Cl)C(=O)N(c2cc(C3(C)CC3)on2)C1O (centres unmarked) [A26]	5
C=CCC(C)(C)c1cc(N2C(=O)C(Cl)=C(C)C2O)no1 (centres unmarked) [A28]	5

same assay, conditions: ECHCG, application pre-emergence, rate 1000 g/Ha, scale 0-5

SMILES	Pre-emergence herbicidal damage score, ECHCG
CC1=C(Cl)C(=O)N(c2noc(C(C)(C)C)c2Br)C1O (centres unmarked) [A23, 1-(4-bromo-5-tert-butyl-isoxazol-3-yl)-4-chloro-2-hydroxy-3-methyl-2H-pyrrol-5-one]	5
CC1=C(Cl)C(=O)N(c2noc(C(C)(C)C)c2Cl)C1O (centres unmarked) [A24]	5
CC1=C(Cl)C(=O)N(c2cc(C3CCCCC3)on2)C1O (centres unmarked) [A25]	2
CC1=C(Cl)C(=O)N(c2cc(C3(C)CC3)on2)C1O (centres unmarked) [A26]	5
C=CCC(C)(C)c1cc(N2C(=O)C(Cl)=C(C)C2O)no1 (centres unmarked) [A28]	5

same assay, conditions: SETFA, application pre-emergence, rate 1000 g/Ha, scale 0-5

SMILES	Pre-emergence herbicidal damage score, SETFA
CC1=C(Cl)C(=O)N(c2noc(C(C)(C)C)c2Br)C1O (centres unmarked) [A23, 1-(4-bromo-5-tert-butyl-isoxazol-3-yl)-4-chloro-2-hydroxy-3-methyl-2H-pyrrol-5-one]	3
CC1=C(Cl)C(=O)N(c2noc(C(C)(C)C)c2Cl)C1O (centres unmarked) [A24]	4
CC1=C(Cl)C(=O)N(c2cc(C3CCCCC3)on2)C1O (centres unmarked) [A25]	0
CC1=C(Cl)C(=O)N(c2cc(C3(C)CC3)on2)C1O (centres unmarked) [A26]	5
C=CCC(C)(C)c1cc(N2C(=O)C(Cl)=C(C)C2O)no1 (centres unmarked) [A28]	4

same assay, conditions: ZEAMX, application pre-emergence, rate 1000 g/Ha, scale 0-5

SMILES	Pre-emergence herbicidal damage score, ZEAMX
CC1=C(Cl)C(=O)N(c2noc(C(C)(C)C)c2Br)C1O (centres unmarked) [A23, 1-(4-bromo-5-tert-butyl-isoxazol-3-yl)-4-chloro-2-hydroxy-3-methyl-2H-pyrrol-5-one]	3
CC1=C(Cl)C(=O)N(c2noc(C(C)(C)C)c2Cl)C1O (centres unmarked) [A24]	2
CC1=C(Cl)C(=O)N(c2cc(C3CCCCC3)on2)C1O (centres unmarked) [A25]	0
CC1=C(Cl)C(=O)N(c2cc(C3(C)CC3)on2)C1O (centres unmarked) [A26]	3
C=CCC(C)(C)c1cc(N2C(=O)C(Cl)=C(C)C2O)no1 (centres unmarked) [A28]	2

system: a variety of test species; test: Post-emergence herbicidal activity (glasshouse, sprayed after 8 days cultivation, evaluated after 13 days); format: in vivo; design: key: 5=total damage to plant; 0=no damage to plant; conditions: Abutilon theophrasti, rate 1000 g/Ha, scale 0-5
Procedure, shortened: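 Seeds were sown in standard soil and cultivated for 8 days under controlled glasshouse conditions. Seedlings were then sprayed with an aqueous solution of the formulated compound containing 0.5% Tween 20. Injury was rated after a further 13 days, where 5 indicated total damage.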

SMILES	ABUTH (Abutilon theophrasti) damage score, application post-emergence
CC1=C(Cl)C(=O)N(c2noc(C(C)(C)C)c2Br)C1O (centres unmarked) [A23, 1-(4-bromo-5-tert-butyl-isoxazol-3-yl)-4-chloro-2-hydroxy-3-methyl-2H-pyrrol-5-one]	5
CC1=C(Cl)C(=O)N(c2noc(C(C)(C)C)c2Cl)C1O (centres unmarked) [A24]	5
CC1=C(Cl)C(=O)N(c2cc(C3CCCCC3)on2)C1O (centres unmarked) [A25]	5
CC1=C(Cl)C(=O)N(c2cc(C3(C)CC3)on2)C1O (centres unmarked) [A26]	5
C=CCC(C)(C)c1cc(N2C(=O)C(Cl)=C(C)C2O)no1 (centres unmarked) [A28]	5

same assay, conditions: Alopecurus myosuroides, rate 1000 g/Ha, scale 0-5

SMILES	ALOMY (Alopecurus myosuroides) damage score, application post-emergence
CC1=C(Cl)C(=O)N(c2noc(C(C)(C)C)c2Br)C1O (centres unmarked) [A23, 1-(4-bromo-5-tert-butyl-isoxazol-3-yl)-4-chloro-2-hydroxy-3-methyl-2H-pyrrol-5-one]	5
CC1=C(Cl)C(=O)N(c2noc(C(C)(C)C)c2Cl)C1O (centres unmarked) [A24]	5
CC1=C(Cl)C(=O)N(c2cc(C3CCCCC3)on2)C1O (centres unmarked) [A25]	3
CC1=C(Cl)C(=O)N(c2cc(C3(C)CC3)on2)C1O (centres unmarked) [A26]	4
C=CCC(C)(C)c1cc(N2C(=O)C(Cl)=C(C)C2O)no1 (centres unmarked) [A28]	5

same assay, conditions: Amaranthus retroflexus, rate 1000 g/Ha, scale 0-5

SMILES	AMARE (Amaranthus retroflexus) damage score, application post-emergence
CC1=C(Cl)C(=O)N(c2noc(C(C)(C)C)c2Br)C1O (centres unmarked) [A23, 1-(4-bromo-5-tert-butyl-isoxazol-3-yl)-4-chloro-2-hydroxy-3-methyl-2H-pyrrol-5-one]	5
CC1=C(Cl)C(=O)N(c2noc(C(C)(C)C)c2Cl)C1O (centres unmarked) [A24]	5
CC1=C(Cl)C(=O)N(c2cc(C3CCCCC3)on2)C1O (centres unmarked) [A25]	4
CC1=C(Cl)C(=O)N(c2cc(C3(C)CC3)on2)C1O (centres unmarked) [A26]	5
C=CCC(C)(C)c1cc(N2C(=O)C(Cl)=C(C)C2O)no1 (centres unmarked) [A28]	5

same assay, conditions: Echinochloa crus-galli, rate 1000 g/Ha, scale 0-5

SMILES	ECHCG (Echinochloa crus-galli) damage score, application post-emergence
CC1=C(Cl)C(=O)N(c2noc(C(C)(C)C)c2Br)C1O (centres unmarked) [A23, 1-(4-bromo-5-tert-butyl-isoxazol-3-yl)-4-chloro-2-hydroxy-3-methyl-2H-pyrrol-5-one]	5
CC1=C(Cl)C(=O)N(c2noc(C(C)(C)C)c2Cl)C1O (centres unmarked) [A24]	5
CC1=C(Cl)C(=O)N(c2cc(C3CCCCC3)on2)C1O (centres unmarked) [A25]	4
CC1=C(Cl)C(=O)N(c2cc(C3(C)CC3)on2)C1O (centres unmarked) [A26]	5
C=CCC(C)(C)c1cc(N2C(=O)C(Cl)=C(C)C2O)no1 (centres unmarked) [A28]	5

same assay, conditions: Setaria faberi, rate 1000 g/Ha, scale 0-5

SMILES	SETFA (Setaria faberi) damage score, application post-emergence
CC1=C(Cl)C(=O)N(c2noc(C(C)(C)C)c2Br)C1O (centres unmarked) [A23, 1-(4-bromo-5-tert-butyl-isoxazol-3-yl)-4-chloro-2-hydroxy-3-methyl-2H-pyrrol-5-one]	5
CC1=C(Cl)C(=O)N(c2noc(C(C)(C)C)c2Cl)C1O (centres unmarked) [A24]	5
CC1=C(Cl)C(=O)N(c2cc(C3CCCCC3)on2)C1O (centres unmarked) [A25]	5
CC1=C(Cl)C(=O)N(c2cc(C3(C)CC3)on2)C1O (centres unmarked) [A26]	5
C=CCC(C)(C)c1cc(N2C(=O)C(Cl)=C(C)C2O)no1 (centres unmarked) [A28]	5

same assay, conditions: Zea mays, rate 1000 g/Ha, scale 0-5

SMILES	ZEAMX (Zea mays) damage score, application post-emergence
CC1=C(Cl)C(=O)N(c2noc(C(C)(C)C)c2Br)C1O (centres unmarked) [A23, 1-(4-bromo-5-tert-butyl-isoxazol-3-yl)-4-chloro-2-hydroxy-3-methyl-2H-pyrrol-5-one]	4
CC1=C(Cl)C(=O)N(c2noc(C(C)(C)C)c2Cl)C1O (centres unmarked) [A24]	4
CC1=C(Cl)C(=O)N(c2cc(C3CCCCC3)on2)C1O (centres unmarked) [A25]	1
CC1=C(Cl)C(=O)N(c2cc(C3(C)CC3)on2)C1O (centres unmarked) [A26]	5
C=CCC(C)(C)c1cc(N2C(=O)C(Cl)=C(C)C2O)no1 (centres unmarked) [A28]	4

system: not given; test: not given; conditions: not given

SMILES	melting point
CC1=C(Cl)C(=O)N(c2noc(C(C)(C)C)c2Br)C1O (centres unmarked) [A23, 1-(4-bromo-5-tert-butyl-isoxazol-3-yl)-4-chloro-2-hydroxy-3-methyl-2H-pyrrol-5-one]	158 to 160 °C
CC1=C(Cl)C(=O)N(c2noc(C(C)(C)C)c2Cl)C1O (centres unmarked) [A24]	143 to 145 °C
CC1=C(Cl)C(=O)N(c2cc(C3CCCCC3)on2)C1O (centres unmarked) [A25]	141 to 143 °C
CC1=C(Cl)C(=O)N(c2cc(C3(C)CC3)on2)C1O (centres unmarked) [A26]	177 to 178 °C
C=CCC(C)(C)c1cc(N2C(=O)C(Cl)=C(C)C2O)no1 (centres unmarked) [A28]	107 to 109 °C

Reference: patent publication US9936701B2, “Herbicidal compounds” (Syngenta Participations AG, priority 2013, dated 2018)
